ChEMBL document CHEMBL4196103, “Bioactive Sesquiterpenoids from the Peeled Stems of Syringa pinnatifolia” (J Nat Prod, 2018)
Active and inactive are the calls of the source. No cut-off for these calls is given here.

Tested on: RAW264.7
Assay: Antiinflammatory activity against mouse RAW264.7 cells assessed as inhibition of LPS-induced NO production at 80 uM preincubated for 2 hrs followed by LPS stimulation measured after 24 hrs by Griess reagent based assay relative to control
Type: functional

| Structure (SMILES) | inhibition at 80 µM [%] |
| --- | --- |
| CC1(C)C/C=C(/C=O)CC[C@H]2[C@H]1CC(=O)[C@]2(C)O | < 50 |
| CO[C@H]1CC[C@]2(C)O[C@H]2CC(C)(C)/C=C/C(=O)[C@H]1C | < 50 |
| C=C1CC[C@H]2O[C@]2(C)[C@@H](O)C[C@@H]2[C@@H]1CC2(C)C [SUBEROSOL A] | < 50 |
| C=C1CC[C@H](O)[C@H](C)C(=O)C[C@@H]2[C@@H]1CC2(C)C | < 50 |
| C/C1=C\CC(C)(C)/C=C/[C@H](O)[C@H](C)CCC1 | < 50 |
| C=C1C(=O)C/C=C(\C)[C@@H](O)C[C@@H]2[C@@H]1CC2(C)C | < 50 |
| C/C1=C\CC[C@@]2(C)O[C@@H]2[C@@H](O)C(C)(C)/C=C/C1=O | < 50 |
| CCC(=O)/C=C/C(C)(C)C/C=C(\C)CCC=O | < 50 |
| CC1(C)C/C=C(/C=O)CC[C@@H]2[C@@H]1CC(=O)[C@@]2(C)O | < 50 |
| CO[C@@H]1CC[C@@]2(C)O[C@@H]2CC(C)(C)/C=C/C(=O)[C@@H]1C | < 50 |
| C/C1=C\CC(C)(C)/C=C/C(=O)[C@H](C)[C@H](O)CC1 | < 50 |
| C/C1=C\CC(C)(C)/C=C/C(=O)[C@@H](C)[C@@H](O)CC1 | < 50 |
| C/C1=C\C[C@H](O)[C@]2(C)O[C@H]2CC(C)(C)/C=C/C1=O | < 50 |

Tested on: RAW264.7
Assay: Antiinflammatory activity against mouse RAW264.7 cells assessed as inhibition of LPS-induced IL-6 production preincubated for 1 hr followed by LPS stimulation measured after 24 hrs by ELISA
Type: functional, cell-based

| Structure (SMILES) | inhibition |
| --- | --- |
| C/C1=C\CC(C)(C)/C=C/C(=O)[C@@H](CO)CCC1 | Dose-dependent effect |
| CO[C@H]1CC/C(C)=C/CC(C)(C)/C=C/C(=O)[C@@H]1CO | Dose-dependent effect |
| CO[C@@H]1CC/C(C)=C/CC(C)(C)/C=C/C(=O)[C@H]1CO | Dose-dependent effect |
| C/C1=C\CC(C)(C)/C=C/C(=O)[C@H](CO)CCC1 | Dose-dependent effect |
| C/C1=C\CC(C)(C)/C=C/C(=O)/C(C)=C/CC1 [ZERUMBONE] | Dose-dependent effect |
| C/C1=C\CC[C@@]2(C)O[C@@H]2CC(C)(C)/C=C/C1=O [ZERUMBONE EPOXIDE] | Dose-dependent effect |
| COC1CC/C(C)=C/CC(C)(C)/C=C/C(=O)C1CO (centres undefined) | Dose-dependent effect |

Tested on: RAW264.7
Assay: Antiinflammatory activity against mouse RAW264.7 cells assessed as inhibition of LPS-induced TNFalpha production preincubated for 1 hr followed by LPS stimulation measured after 24 hrs by ELISA
Type: functional, cell-based

| Structure (SMILES) | inhibition |
| --- | --- |
| C/C1=C\CC(C)(C)/C=C/C(=O)[C@@H](CO)CCC1 | Dose-dependent effect |
| CO[C@H]1CC/C(C)=C/CC(C)(C)/C=C/C(=O)[C@@H]1CO | Dose-dependent effect |
| CO[C@@H]1CC/C(C)=C/CC(C)(C)/C=C/C(=O)[C@H]1CO | Dose-dependent effect |
| C/C1=C\CC(C)(C)/C=C/C(=O)[C@H](CO)CCC1 | Dose-dependent effect |
| C/C1=C\CC(C)(C)/C=C/C(=O)/C(C)=C/CC1 [ZERUMBONE] | Dose-dependent effect |
| C/C1=C\CC[C@@]2(C)O[C@@H]2CC(C)(C)/C=C/C1=O [ZERUMBONE EPOXIDE] | Dose-dependent effect |
| COC1CC/C(C)=C/CC(C)(C)/C=C/C(=O)C1CO (centres undefined) | Dose-dependent effect |

Organism: Mus musculus
Assay: Protection against hypoxia-induced injury in […] cells assessed as increase in cell viability at 40 uM incubated for 20 hrs under hypoxia condition by CCK-8 assay
Type: functional, cell-based

| Structure (SMILES) | Activity |
| --- | --- |
| CO[C@@H]1CC/C(C)=C/CC(C)(C)/C=C/C(=O)[C@H]1CO | Active |
| C/C1=C\CC(C)(C)/C=C/C(=O)/C(C)=C/CC1 [ZERUMBONE] | Active |
| COC1CC/C(C)=C/CC(C)(C)/C=C/C(=O)C1CO (centres undefined) | Active |

Tested on: not listed separately
Assay: Cytotoxicity against […] cells assessed as decrease in cell viability at 20 uM incubated for 24 hrs by CCK-8 assay
Type: cell-based

| Structure (SMILES) | Activity |
| --- | --- |
| C/C1=C\CC(C)(C)/C=C/C(=O)/C(CO)=C/CC1 | Toxic |

Tested on: RAW264.7
Assay: Antiinflammatory activity against mouse RAW264.7 cells assessed as inhibition of LPS-induced NO production preincubated for 2 hrs followed by LPS stimulation measured after 24 hrs by Griess reagent based assay
Type: functional, cell-based

| IC50 [µM] | Structure (SMILES) |
| --- | --- |
| 33.6 | COc1ccc2c(c1)c(CC(=O)O)c(C)n2C(=O)c1ccc(Cl)cc1 [INDOMETHACIN] |
| 70.6 | C/C1=C\CC(C)(C)/C=C/C(=O)[C@@H](CO)CCC1 |
| 41.4 | CO[C@H]1CC/C(C)=C/CC(C)(C)/C=C/C(=O)[C@@H]1CO |
| 27.2 | CO[C@@H]1CC/C(C)=C/CC(C)(C)/C=C/C(=O)[C@H]1CO |
| 33.1 | C/C1=C\CC(C)(C)/C=C/C(=O)[C@H](CO)CCC1 |
| 13.6 | C/C1=C\CC(C)(C)/C=C/C(=O)/C(C)=C/CC1 [ZERUMBONE] |
| 22.3 | C/C1=C\CC[C@@]2(C)O[C@@H]2CC(C)(C)/C=C/C1=O [ZERUMBONE EPOXIDE] |
| 18.1 | COC1CC/C(C)=C/CC(C)(C)/C=C/C(=O)C1CO (centres undefined) |
